Measurements: patent publication US20240409573A1, “CALICHEAMICIN DERIVATIVES AND ANTIBODY DRUG CONJUGATES THEREOF” (priority 2017, published 2024)

What was measured:
Format in all cases: cell-based
[1] = system: HT29 cells, Her2-non-expressing; experiment: In vitro cell assay, cell viability by MTS, HT29; settings: Homo sapiens, HT-29, 96 h, read-out: Average IC50, HT29
Procedure: (§1) Her2-Target expressing (BT474 (breast cancer), N87 (gastric cancer), MDA-MB-361-DYT2 (breast cancer)) or Her2-non-expressing (MDA-MB-468, HT29) cells, or 0033-target expressing HL60, HEL92.1.7, NB4, TF-1 or 0033-non-expressing (Raji) cells were seeded in 96-well cell culture plates for 24 hours before treatment. Cells were treated with 3-fold serially diluted antibody-drug conjugates or free compounds (i.e., no antibody conjugated to the drug) in duplicate at 10 concentrations. Cell viability was determined by CellTiter 96® AQueous One Solution Cell Proliferation MTS Assay (Promega, Madison WI) 96 hours after treatment. Relative cell viability was determined as percentage of untreated control. IC50 values were calculated using a four parameter logistic model #203 with XLfit v4.2 (IDBS, Guildford, Surry, UK). Results are shown below in Table 3 (for payloads), Table 4 (for Herceptin conjugates), and Table 5 (for CD33 conjugates).

[2] = system: MDA-MB-361-DYT2 (breast cancer) cells, Her2-target expressing; experiment: In vitro cell assay, cell viability by MTS, MDA-MB-361-DYT2; settings: 96 h, read-out: Average IC50, MDA-MB-361-DYT2
Procedure: as §1

[3] = system: N87 (gastric cancer) cells, Her2-target expressing; experiment: In vitro cell assay, cell viability by MTS, N87; settings: 96 h, read-out: Average IC50, N87
Procedure: as §1

[4] = system: Raji cells, CD33-non-expressing; experiment: In vitro cell assay, cell viability by MTS, Raji; settings: Homo sapiens, 96 h, read-out: Average IC50, Raji
Procedure: as §1

[5] = system: HL60 cells, CD33-target expressing; experiment: In vitro cell assay, cell viability by MTS, HL60; settings: Homo sapiens, HL-60, 96 h, read-out: Average IC50, HL-60
Procedure: as §1

[6] = system: TF-1 cells, CD33-target expressing; experiment: In vitro cell assay, cell viability by MTS, TF-1; settings: Homo sapiens, TF-1, 96 h, read-out: Average IC50, TF-1
Procedure: as §1

CCN[C@H]1CO[C@@H](O[C@H]2[C@H](O[C@H]3C#C/C=C\C#C[C@]4(O)CC(=O)C(NC(=O)OC)=C3/C4=C\CSSC(C)C(=O)O)O[C@H](C)[C@@H](NO[C@H]3C[C@H](O)[C@H](SC(=O)c4c(C)c(I)c(O[C@@H]5O[C@@H](C)[C@H](O)[C@@H](OC)[C@H]5O)c(OC)c4OC)[C@@H](C)O3)[C@@H]2O)C[C@@H]1OC (mixture of isomers) [Example P9] was tested, and the IC50 [1] was 0.334 nM, the IC50 [2] was 1.89 nM and the IC50 [3] was 0.392 nM.
In the case of CCNC1COC(OC2C(OC3C#C/C=C\C#C[C@]4(O)CC(=O)C(NC(=O)OC)=C3/C4=C\CSSC3CC3)OC(C)C(NOC3CC(O)C(SC(=O)c4c(C)c(I)c(OC5OC(C)C(O)C(OC)C5O)c(OC)c4OC)C(C)O3)C2O)CC1OC (stereo in doubt) [Example P18], the IC50 [1] is reported as 0.005 nM, the IC50 [2] is reported as 0.017 nM and the IC50 [4] is reported as 0.003 nM. For the same compound, the IC50 [5] was 0.005 nM, the IC50 [6] was 0.093 nM and the IC50 [3] was 0.033 nM.
In the case of CCNC1COC(OC2C(OC3C#C/C=C\C#C[C@]4(O)CC(=O)C(NC(=O)OC)=C3/C4=C\CSSC3CCCC3)OC(C)C(NOC3CC(O)C(SC(=O)c4c(C)c(I)c(OC5OC(C)C(O)C(OC)C5O)c(OC)c4OC)C(C)O3)C2O)CC1OC (stereo in doubt) [Example P20], the IC50 [1] is reported as 0.002 nM, the IC50 [2] is reported as 0.005 nM and the IC50 [3] is reported as 0.004 nM.
CCNC1COC(OC2C(OC3C#C/C=C\C#C[C@]4(O)CC(=O)C(NC(=O)OC)=C3/C4=C\CSSC3CCCCC3)OC(C)C(NOC3CC(O)C(SC(=O)c4c(C)c(I)c(OC5OC(C)C(O)C(OC)C5O)c(OC)c4OC)C(C)O3)C2O)CC1OC (stereo in doubt) [Example P21] was tested, and the IC50 [1] was 0.012 nM, the IC50 [2] was 0.064 nM and the IC50 [3] was 0.013 nM.
CCN[C@H]1CO[C@@H](O[C@@H]2C(O)[C@H](NO[C@H]3C[C@H](O)[C@H](SC(=O)c4c(C)c(I)c(O[C@@H]5O[C@@H](C)[C@H](O)[C@@H](OC)[C@H]5O)c(OC)c4OC)[C@@H](C)O3)[C@@H](C)O[C@H]2O[C@H]2C#C/C=C\C#C[C@]3(O)CC(=O)C(NC(=O)OC)=C2/C3=C\CSSc2ccncc2)C[C@@H]1OC (stereo in doubt) [Example P44] was tested, and the IC50 [1] was 1.26 nM, the IC50 [2] was over 10 nM and the IC50 [4] was 0.171 nM. The IC50 [5] was 0.127 nM, the IC50 [6] was 1.48 nM and the IC50 [3] was 0.418 nM.
CCN[C@H]1CO[C@@H](O[C@H]2[C@H](O[C@H]3C#C/C=C\C#C[C@]4(O)CC(=O)C(NC(=O)OC)=C3/C4=C\CSSC(C)(C)CCN)O[C@H](C)[C@@H](NO[C@H]3C[C@H](O)[C@H](SC(=O)c4c(C)c(I)c(O[C@@H]5O[C@@H](C)[C@H](O)[C@@H](OC)[C@H]5O)c(OC)c4OC)[C@@H](C)O3)[C@@H]2O)C[C@@H]1OC [Example P8] showed an IC50 [1] of 0.07 nM, an IC50 [2] of 0.063 nM and an IC50 [4] of 0.028 nM. The IC50 [5] was 0.081 nM, the IC50 [6] was 0.36 nM and the IC50 [3] was 0.804 nM.
CCN[C@H]1CO[C@@H](O[C@H]2[C@H](O[C@H]3C#C/C=C\C#C[C@]4(O)CC(=O)C(NC(=O)OC)=C3/C4=C\CSSC[C@H](NC(=O)CC[C@H](N)C(=O)O)C(=O)NCC(=O)O)O[C@H](C)[C@@H](NO[C@H]3C[C@H](O)[C@H](SC(=O)c4c(C)c(I)c(O[C@@H]5O[C@@H](C)[C@H](O)[C@@H](OC)[C@H]5O)c(OC)c4OC)[C@@H](C)O3)[C@@H]2O)C[C@@H]1OC [Example P14] was tested, and the IC50 [1] was 2.22 nM, the IC50 [2] was 15.6 nM and the IC50 [3] was 2.73 nM.
CCN[C@H]1CO[C@@H](O[C@H]2[C@H](O[C@H]3C#C/C=C\C#C[C@]4(O)CC(=O)C(NC(=O)OC)=C3/C4=C\CSSC3CCN(C)CC3)O[C@H](C)[C@@H](NO[C@H]3C[C@H](O)[C@H](SC(=O)c4c(C)c(I)c(O[C@@H]5O[C@@H](C)[C@H](O)[C@@H](OC)[C@H]5O)c(OC)c4OC)[C@@H](C)O3)[C@@H]2O)C[C@@H]1OC [Example P15] showed an IC50 [1] of 0.12 nM, an IC50 [2] of 0.077 nM and an IC50 [3] of 0.077 nM.
With CCN[C@H]1CO[C@@H](O[C@H]2[C@H](O[C@H]3C#C/C=C\C#C[C@]4(O)CC(=O)C(NC(=O)OC)=C3/C4=C\CSSC3CCN(C(=O)OC(C)(C)C)CC3)O[C@H](C)[C@@H](NO[C@H]3C[C@H](O)[C@H](SC(=O)c4c(C)c(I)c(O[C@@H]5O[C@@H](C)[C@H](O)[C@@H](OC)[C@H]5O)c(OC)c4OC)[C@@H](C)O3)[C@@H]2O)C[C@@H]1OC [Example P17] the IC50 [1] was 0.501 nM, the IC50 [2] was 0.152 nM and the IC50 [3] was 2.38 nM.
With CCN[C@H]1CO[C@@H](O[C@H]2[C@H](O[C@H]3C#CC=CC#C[C@]4(O)CC(=O)C(NC(=O)OC)=C3/C4=C\CSSC3CCC3)O[C@H](C)[C@@H](NO[C@H]3C[C@H](O)[C@H](SC(=O)c4c(C)c(I)c(O[C@@H]5O[C@@H](C)[C@H](O)[C@@H](OC)[C@H]5O)c(OC)c4OC)[C@@H](C)O3)[C@@H]2O)C[C@@H]1OC [Example P19] the IC50 [1] was 0.004 nM, the IC50 [2] was 0.005 nM and the IC50 [3] was 0.005 nM.
Work on CCN[C@H]1CO[C@@H](O[C@H]2[C@H](O[C@H]3C#C/C=C\C#C[C@]4(O)CC(=O)C(NC(=O)OC)=C3/C4=C\CSSC34CC5CC(CC(C5)C3)C4)O[C@H](C)[C@@H](NO[C@H]3C[C@H](O)[C@H](SC(=O)c4c(C)c(I)c(O[C@@H]5O[C@@H](C)[C@H](O)[C@@H](OC)[C@H]5O)c(OC)c4OC)[C@@H](C)O3)[C@@H]2O)C[C@@H]1OC [Example P22] yielded an IC50 [1] of 0.009 nM, an IC50 [2] of 0.044 nM and an IC50 [3] of 0.015 nM.
CCN[C@H]1CO[C@@H](O[C@H]2[C@H](O[C@H]3C#C/C=C\C#C[C@]4(O)CC(=O)C(NC(=O)OC)=C3/C4=C\CSSC(C)(C)C#N)O[C@H](C)[C@@H](NO[C@H]3C[C@H](O)[C@H](SC(=O)c4c(C)c(I)c(O[C@@H]5O[C@@H](C)[C@H](O)[C@@H](OC)[C@H]5O)c(OC)c4OC)[C@@H](C)O3)[C@@H]2O)C[C@@H]1OC [Example P23] gave an IC50 [1] of 0.012 nM, an IC50 [2] of 0.007 nM and an IC50 [3] of 0.005 nM.
In the case of CCN[C@H]1CO[C@@H](O[C@H]2[C@H](O[C@H]3C#C/C=C\C#C[C@]4(O)CC(=O)C(NC(=O)OC)=C3/C4=C\CSSC(C)(C)c3cccnc3N)O[C@H](C)[C@@H](NO[C@H]3C[C@H](O)[C@H](SC(=O)c4c(C)c(I)c(O[C@@H]5O[C@@H](C)[C@H](O)[C@@H](OC)[C@H]5O)c(OC)c4OC)[C@@H](C)O3)[C@@H]2O)C[C@@H]1OC [Example P26], the IC50 [1] is reported as 0.004 nM, the IC50 [2] is reported as 0.017 nM and the IC50 [4] is reported as 0.004 nM. For the same compound, the IC50 [5] was 0.002 nM, the IC50 [6] was 0.036 nM and the IC50 [3] was 0.035 nM.
CCN[C@H]1CO[C@@H](O[C@H]2[C@H](O[C@H]3C#C/C=C\C#C[C@]4(O)CC(=O)C(NC(=O)OC)=C3/C4=C\CSSC(C)(C)c3ccc(N)cc3)O[C@H](C)[C@@H](NO[C@H]3C[C@H](O)[C@H](SC(=O)c4c(C)c(I)c(O[C@@H]5O[C@@H](C)[C@H](O)[C@@H](OC)[C@H]5O)c(OC)c4OC)[C@@H](C)O3)[C@@H]2O)C[C@@H]1OC [Example P27] showed an IC50 [1] of 0.006 nM, an IC50 [2] of 0.003 nM and an IC50 [4] of 0.002 nM. For the same compound, the IC50 [5] was 0.004 nM, the IC50 [6] was 0.02 nM and the IC50 [3] was 0.04 nM.
CCN[C@H]1CO[C@@H](O[C@H]2[C@H](O[C@H]3C#C/C=C\C#C[C@]4(O)CC(=O)C(NC(=O)OC)=C3/C4=C\CSSC(C)(C)c3ccc(C(=O)O)cc3)O[C@H](C)[C@@H](NO[C@H]3C[C@H](O)[C@H](SC(=O)c4c(C)c(I)c(O[C@@H]5O[C@@H](C)[C@H](O)[C@@H](OC)[C@H]5O)c(OC)c4OC)[C@@H](C)O3)[C@@H]2O)C[C@@H]1OC [Example P29] showed an IC50 [1] of 0.036 nM, an IC50 [2] of 0.025 nM and an IC50 [4] of 0.015 nM. For the same compound, the IC50 [5] was 0.025 nM, the IC50 [6] was 0.466 nM and the IC50 [3] was 0.17 nM.
